Common to all, as to test: NCI-60 cell line screen, 48 h
The test system of test [1] is EKVX.
Test [2] relates to HCT-15.
Test [3] relates to HL-60.
Test [4] relates to Hs-578T.
For test [5], the system named is IGROV-1.
Test [6] deals with K562.
Test [7] concerns KM12.
For test [8], the system named is M14.
Test [9] has as its system MOLT-4.
Test [10] has as its system NCI-H23.
Test [11] concerns OVCAR-3.
The subject of test [12] is OVCAR-4.
The test system of test [13] is SF-268.
For test [14], the system named is SK-MEL-28.
Test [15] concerns SK-MEL-2.
The test system of test [16] is SK-OV-3.
The test system of test [17] is SW-620.
The subject of test [18] is T47D.
The test system of test [19] is U-251.
For test [20], the system named is UACC-257.

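Five concentrations, 48 hours, 96-well plates. Here, GI50 denotes the concentration required for 50% inhibition of growth.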 Activity calls are given as the source filed them. Cut-off read from the data, not from the text of the source: active = GI50 up to about 1.1 µM and inactive = higher.

Consider `CCOC(=O)c1c(N2CCCC2)ncn(Cc2ccccc2)c1=S`, for which the GI50 in [1] is > 100 µM (inactive); in test [2] it was above 100 µM; in test [3], > 100 µM (inactive); in [4], > 100 µM (inactive); in [5], > 100 µM (inactive); in [6] it was 87.5 µM (inactive). Further, the GI50 was > 100 µM (inactive) in [7]; > 100 µM (inactive) in test [8]; 92.3 µM (inactive) in test [9]; > 100 µM (inactive) in [10]; > 100 µM (inactive) in test [11]; 91.4 µM (inactive) in test [12]. For the same compound, the GI50 is > 100 µM (inactive) in [13]; > 100 µM (inactive) in test [14]; > 100 µM (inactive) in test [15]; > 100 µM (inactive) in test [16]; > 100 µM (inactive) in test [17]; 93.8 µM (inactive) in [18]. The GI50 in [19] and in test [20] was > 100 µM (inactive) in each case.
On to `C=CC(=O)NCCC(=O)OCn1cc(F)c(=O)[nH]c1=O`, for which the GI50 is 10.4 µM (inactive) in [1]; 6.14 µM in [2]; 0.425 µM (active) in test [3]; > 100 µM (inactive) in test [4]; 4.33 µM (inactive) in test [5]; 9.66 µM (inactive) in test [6]. Moreover, the GI50 in test [7] is 5.48 µM (inactive); in test [8] it was 9.89 µM (inactive); in test [9] it was 6.01 µM (inactive); in test [10], 7.01 µM (inactive); in test [11] it was 10.5 µM (inactive); in [12], 0.759 µM (active). Further, the GI50 was 18.7 µM (inactive) in test [13]; 32.2 µM (inactive) in test [14]; 7.93 µM (inactive) in test [15]; 16.3 µM (inactive) in test [16]; 17.2 µM (inactive) in test [17]; 83.2 µM (inactive) in [18]. The values for the GI50 in test [19] and in test [20] were 18 µM (inactive) and 7.11 µM (inactive), respectively.

Source of the values: ChEMBL document CHEMBL1201862, “PubChem BioAssay data set” (2004).
